Assay [1] has as its target T1, Phospholipase D2 (Homo sapiens, UniProt O14939). Description: cellular phospholipase D2 inhibition IC50 – cell-based, dose response (AID 602147).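 Further: cellular assay in HEK293 cells overexpressing GFP-tagged PLD2.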 It counts as functional.
The target in assay [2] is T2, Phospholipase D1 (Homo sapiens, UniProt Q13393). As to the kind of experiment: cellular phospholipase D1 inhibition IC50 – cell-based, dose response (AID 602151).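 Further: cellular PLD1 assay in Calu-1 cells stimulated with PMA.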 It counts as functional.
The subject of assay [3] is Candida albicans. Description: single-agent toxicity toward C. albicans – CaCi-2 strain, no fluconazole, dry powder, set 4, counter-screen for reversing antifungal drug resistance, dose response (AID 488932). It counts as functional, organism-based.
In assay [4] the test system is Candida albicans. As to the kind of experiment: fluconazole-resistant Candida strain growth inhibitors – CaCi-8 strain, dry powder, set 4, dose response (AID 488950). The class given is functional, organism-based.
The subject of assay [5] is Candida albicans. As to the kind of experiment: resistant Candida growth with fluconazole co-treatment – CaCi-8 strain, Alamar Blue, dry powder, set 3, dose response (AID 488905). The class given is functional, organism-based.
Assay [6] concerns Candida albicans. Description: Candida growth inhibition combined with fluconazole – CaCi-2 strain, Alamar Blue, dry powder, set 3, dose response (AID 488907). The class given is functional, organism-based.
Assay [7] has as its system Candida albicans. As to the kind of experiment: C. albicans growth inhibition with fluconazole – CaCi-2 strain, Alamar Blue, dry powder, set 4, dose response (AID 488943). The class given is functional, organism-based.
Assay [8] concerns the target T3, Oxysterols receptor LXR-beta (Homo sapiens, UniProt P55055).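 Further: agonist activity at LXR measured by a cell-based luminescence readout across a dose range, run as a counterscreen for daf-12 agonists; HEK293 cells with Gal4-LXR fusion and GAL4-driven luciferase reporter; potency for activation of Gal4-LXR reporter so compounds are agonists.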
T3 sequence (P55055 whole entry): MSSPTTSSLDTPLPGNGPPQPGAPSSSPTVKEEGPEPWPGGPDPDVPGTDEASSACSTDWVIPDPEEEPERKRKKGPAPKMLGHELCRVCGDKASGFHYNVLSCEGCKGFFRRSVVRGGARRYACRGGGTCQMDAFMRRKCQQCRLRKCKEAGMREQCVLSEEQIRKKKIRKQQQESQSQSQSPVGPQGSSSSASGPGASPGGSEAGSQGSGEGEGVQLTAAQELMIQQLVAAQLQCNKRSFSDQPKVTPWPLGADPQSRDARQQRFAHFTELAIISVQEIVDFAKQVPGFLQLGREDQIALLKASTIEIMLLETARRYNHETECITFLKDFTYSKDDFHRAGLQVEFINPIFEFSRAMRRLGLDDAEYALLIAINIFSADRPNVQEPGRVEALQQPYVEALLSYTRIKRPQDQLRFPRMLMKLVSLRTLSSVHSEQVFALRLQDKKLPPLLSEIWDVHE
The class given is functional, cell-based.

Assay [9] deals with Nuclear receptor subfamily 0 group B member 1 (Homo sapiens, UniProt P51843). Description: Luminescence-based cell-based high throughput dose response assay for inhibitors of the orphan nuclear receptor subfamily 0, group B, member 1 (DAX1; NR0B1). [Related pubchem assays (depositor defined):AID504766, AID504790]. The class given is functional.
A short description of assay [10]: cytotoxicity toward HT-29 cells – cell-based, CellTiter-Glo luminescence, IC50, dose response (AID 1117330). It counts as functional.
A short description of assay [11]: cells. It counts as functional, cell-based.
The next assay concerns HEK293. Description: cells. It counts as functional, cell-based. The note with it: Homo sapiens.
Assay [12] is described as follows: HCT116 cell viability decrease, GSK3B pretreatment – CellTiter-Glo, IC50, dose response (AID 1117339). It counts as functional. The note with it: HCT-116.
Assay [13] can be described thus: SNU-C1 cell viability reduction, dose response, CellTiter-Glo luminescence (AID 1117323). It counts as functional, cell-based.
A short description of assay [14]: cytotoxicity toward HCT116 cells – cell-based, CellTiter-Glo luminescence, IC50, dose response (AID 1117332). It counts as functional. Conditions: HCT-116.
Assay [15] can be described thus: cytotoxicity toward Colo320 cells – cell-based, CellTiter-Glo luminescence, IC50, dose response (AID 1117334). The class given is functional. The note with it: COLO 320.
Assay [16] is described as follows: cells. The class given is functional, cell-based. The source holds these as a separate data set.
Assay [17] is described as follows: CellTiter-Glo luminescence survival assay, SW480 colon tumor line, concentration-response curve, half-maximal inhibitory concentration (AID 1117338). The class given is functional.
The nature of assay [18]: Reduced DLD-1 viability, concentration-response, CellTiter-Glo luminescence (AID 1117352). The class given is functional.
Assay [19] can be described thus: RKO cell viability reduction, dose response, CellTiter-Glo luminescence (AID 1117322). It counts as functional.
Assay [20] relates to INS1. Description: beta-cell survival under cytokine stress – INS-1E, ATP luminescence, dry powder, dose response (AID 488844). The note with it: Rattus norvegicus. The class given is functional, cell-based.
Assay [21] relates to INS1. Description: suppression of NO production in INS-1E cells – cell-based, Griess absorbance, dry powder, set 2, dose response (AID 488868). It counts as functional. The note with it: Rattus norvegicus.
The subject of assay [22] is INS1. As to the kind of experiment: suppression of NO production in INS-1E cells – cell-based, Griess absorbance, dry powder, dose response (AID 488866). The class given is functional. Conditions: Rattus norvegicus.
Assay [23] is described as follows: suppression of NO production in INS-1E cells – cell-based, Griess absorbance, dry powder, set 3, dose response (AID 488870). It counts as functional. The note with it: Rattus norvegicus.
Assay [24] concerns the target Sphingosine 1-phosphate receptor 3 (Homo sapiens, UniProt Q99500). Description: Late-stage fluorescence-based dose-response cell-based counterscreen assay to identify agonists of the Sphingosine 1-Phosphate Receptor 4 (S1P4): Sphingosine 1-Phosphate Receptor 3 (S1P3) agonist assay Set 2. The class given is functional.
In assay [25] the target is Sphingosine 1-phosphate receptor 1 (Homo sapiens, UniProt P21453). As to the kind of experiment: Late-stage fluorescence-based dose-response cell-based counterscreen assay to identify agonists of the Sphingosine 1-Phosphate Receptor 4 (S1P4): Sphingosine 1-Phosphate Receptor 1 (S1P1) agonist assay Set 2. It counts as functional.
The target in assay [26] is Sphingosine 1-phosphate receptor 5 (Homo sapiens, UniProt Q9H228). As to the kind of experiment: activation of human S1P5 receptor – cell-based, fluorescence, set 2, counter-screen for S1P4 agonist project, late-stage follow-up (AID 504867). The class given is functional.
Assay [27] concerns the target T4, Endoribonuclease toxin MazF (Escherichia coli K-12, UniProt P0AE70).
T4 sequence (P0AE70 whole entry): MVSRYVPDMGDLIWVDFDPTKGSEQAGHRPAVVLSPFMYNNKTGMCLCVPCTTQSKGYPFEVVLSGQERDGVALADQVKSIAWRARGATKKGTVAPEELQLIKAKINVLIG
Description: activation of MazEF endoribonuclease cleavage – biochemical, fluorescence, single-stranded RNA substrate, uHTS hits, dose response (AID 588481). It counts as functional.

Assay [28] deals with T4, Endoribonuclease toxin MazF. Description: MazEF toxin-antitoxin RNase activation – biochemical, fluorescence, single-stranded RNA substrate, SAR follow-up (AID 588603). The class given is functional.
Assay [29] has the same target. Description: substrate-only fluorescence increase artefacts – biochemical, single-stranded RNase substrate, counter-screen for MazEF activator project, dose response (AID 588502). The class given is functional.
For assay [30] the target is unchanged. Description: SAR analysis of small molecule activators of the MazEF TA System via a fluorescence-based single-stranded RNase assay counterscreen. [Related pubchem assays (depositor defined):AID504720, AID504743]. It counts as functional.
A further assay relates to MEF. Description: SAR analysis of small molecule cytotoxicity of MazEF TA System activators in embryonic fibroblast (MEF) cells. [Related pubchem assays (depositor defined):AID504720, AID504743]. It counts as functional. The note with it: Mus musculus.
The target in assay [31] is T1, Phospholipase D2. Description: PLD2 purified enzyme concentration response. [Related pubchem assays (depositor defined):AID588854]. It counts as functional.
Assay [32] concerns the target T2, Phospholipase D1. As to the kind of experiment: PLD1 purified enzyme concentration response. [Related pubchem assays (depositor defined):AID588854]. The class given is functional.

Data on 7 molecules can be found in ChEMBL document CHEMBL1201862, “PubChem BioAssay data set” (2004).

Calls of active or inactive are those of the source.

T1 sequence (O14939 whole entry): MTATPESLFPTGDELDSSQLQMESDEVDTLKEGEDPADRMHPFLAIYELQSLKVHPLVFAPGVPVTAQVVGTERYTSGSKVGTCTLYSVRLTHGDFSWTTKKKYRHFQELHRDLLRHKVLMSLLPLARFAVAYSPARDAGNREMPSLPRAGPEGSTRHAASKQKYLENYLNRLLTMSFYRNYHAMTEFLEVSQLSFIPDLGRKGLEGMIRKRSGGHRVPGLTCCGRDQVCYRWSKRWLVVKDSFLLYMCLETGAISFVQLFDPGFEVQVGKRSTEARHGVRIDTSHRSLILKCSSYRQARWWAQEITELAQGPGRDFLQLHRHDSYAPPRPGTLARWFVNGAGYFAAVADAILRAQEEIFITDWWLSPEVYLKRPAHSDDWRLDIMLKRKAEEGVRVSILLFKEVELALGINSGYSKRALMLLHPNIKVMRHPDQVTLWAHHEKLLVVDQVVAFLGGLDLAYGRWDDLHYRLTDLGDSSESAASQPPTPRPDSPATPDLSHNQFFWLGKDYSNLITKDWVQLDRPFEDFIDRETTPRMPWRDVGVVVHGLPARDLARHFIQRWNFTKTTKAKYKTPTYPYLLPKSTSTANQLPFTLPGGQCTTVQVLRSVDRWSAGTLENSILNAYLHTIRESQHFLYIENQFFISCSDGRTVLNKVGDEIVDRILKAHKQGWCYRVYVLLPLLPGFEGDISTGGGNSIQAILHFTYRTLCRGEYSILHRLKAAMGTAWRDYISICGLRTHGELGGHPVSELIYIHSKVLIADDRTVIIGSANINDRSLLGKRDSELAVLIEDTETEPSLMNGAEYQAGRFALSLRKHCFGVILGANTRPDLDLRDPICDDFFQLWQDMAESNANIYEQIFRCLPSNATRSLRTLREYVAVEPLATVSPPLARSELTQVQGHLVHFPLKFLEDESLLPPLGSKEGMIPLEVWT
T2 sequence (Q13393 whole entry): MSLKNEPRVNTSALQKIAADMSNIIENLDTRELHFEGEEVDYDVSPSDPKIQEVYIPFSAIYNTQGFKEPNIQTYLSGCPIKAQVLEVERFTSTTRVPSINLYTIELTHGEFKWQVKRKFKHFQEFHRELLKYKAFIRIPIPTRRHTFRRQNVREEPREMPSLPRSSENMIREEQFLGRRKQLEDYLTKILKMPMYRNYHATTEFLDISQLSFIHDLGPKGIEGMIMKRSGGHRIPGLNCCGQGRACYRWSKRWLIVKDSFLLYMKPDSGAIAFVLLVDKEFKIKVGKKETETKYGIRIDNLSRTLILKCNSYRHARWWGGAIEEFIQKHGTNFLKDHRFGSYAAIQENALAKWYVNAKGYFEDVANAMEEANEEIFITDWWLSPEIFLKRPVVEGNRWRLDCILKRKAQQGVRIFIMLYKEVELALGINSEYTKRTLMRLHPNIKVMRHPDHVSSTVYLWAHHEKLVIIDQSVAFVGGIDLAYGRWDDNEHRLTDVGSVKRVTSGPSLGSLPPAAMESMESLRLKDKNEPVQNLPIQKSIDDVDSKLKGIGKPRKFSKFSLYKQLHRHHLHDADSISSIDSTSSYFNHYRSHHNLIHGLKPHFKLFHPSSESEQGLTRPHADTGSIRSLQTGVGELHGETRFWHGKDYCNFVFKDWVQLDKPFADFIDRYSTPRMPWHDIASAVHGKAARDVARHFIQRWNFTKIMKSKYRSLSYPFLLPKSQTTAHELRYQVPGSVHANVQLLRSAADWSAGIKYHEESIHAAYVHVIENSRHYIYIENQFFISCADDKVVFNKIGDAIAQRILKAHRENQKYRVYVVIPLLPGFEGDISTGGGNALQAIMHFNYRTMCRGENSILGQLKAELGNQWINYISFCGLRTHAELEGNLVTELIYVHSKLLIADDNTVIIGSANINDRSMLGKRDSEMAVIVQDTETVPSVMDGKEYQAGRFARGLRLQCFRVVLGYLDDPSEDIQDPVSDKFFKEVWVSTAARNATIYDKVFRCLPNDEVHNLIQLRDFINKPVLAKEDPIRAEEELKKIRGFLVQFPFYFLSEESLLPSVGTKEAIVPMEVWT
Sphingosine 1-phosphate receptor 1, sequence (P21453 whole entry): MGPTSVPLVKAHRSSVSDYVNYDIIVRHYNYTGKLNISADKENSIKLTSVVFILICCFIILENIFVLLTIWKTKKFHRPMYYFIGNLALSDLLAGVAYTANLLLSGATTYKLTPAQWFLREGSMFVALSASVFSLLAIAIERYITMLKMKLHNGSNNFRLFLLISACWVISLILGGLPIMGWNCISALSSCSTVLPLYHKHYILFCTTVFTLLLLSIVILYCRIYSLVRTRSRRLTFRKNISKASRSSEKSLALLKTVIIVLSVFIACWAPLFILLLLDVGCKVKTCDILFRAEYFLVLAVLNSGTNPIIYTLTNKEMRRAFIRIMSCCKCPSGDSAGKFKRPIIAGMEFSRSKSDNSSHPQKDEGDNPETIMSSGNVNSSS
Sphingosine 1-phosphate receptor 3, sequence (Q99500 whole entry): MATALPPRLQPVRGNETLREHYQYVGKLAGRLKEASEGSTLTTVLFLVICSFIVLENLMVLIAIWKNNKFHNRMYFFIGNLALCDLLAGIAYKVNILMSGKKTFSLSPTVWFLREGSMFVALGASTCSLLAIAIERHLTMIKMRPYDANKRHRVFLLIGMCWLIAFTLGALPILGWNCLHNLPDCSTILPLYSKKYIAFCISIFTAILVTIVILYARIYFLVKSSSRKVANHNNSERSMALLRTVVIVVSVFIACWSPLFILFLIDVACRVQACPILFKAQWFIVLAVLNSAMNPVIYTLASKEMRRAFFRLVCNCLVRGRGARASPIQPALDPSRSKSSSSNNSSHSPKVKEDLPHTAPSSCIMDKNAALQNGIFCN
Sphingosine 1-phosphate receptor 5, sequence (Q9H228 whole entry): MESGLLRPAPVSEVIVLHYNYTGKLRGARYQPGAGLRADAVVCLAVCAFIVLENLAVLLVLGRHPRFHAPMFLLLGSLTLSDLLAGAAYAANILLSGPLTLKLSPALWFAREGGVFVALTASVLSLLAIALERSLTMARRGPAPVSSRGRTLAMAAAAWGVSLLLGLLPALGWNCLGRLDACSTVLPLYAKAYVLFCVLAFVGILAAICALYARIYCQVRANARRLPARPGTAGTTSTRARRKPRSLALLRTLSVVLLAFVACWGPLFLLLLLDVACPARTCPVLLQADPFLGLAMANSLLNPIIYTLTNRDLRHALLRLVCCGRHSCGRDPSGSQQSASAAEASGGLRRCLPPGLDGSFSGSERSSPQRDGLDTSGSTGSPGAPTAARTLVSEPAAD
Nuclear receptor subfamily 0 group B member 1, sequence (P51843 whole entry): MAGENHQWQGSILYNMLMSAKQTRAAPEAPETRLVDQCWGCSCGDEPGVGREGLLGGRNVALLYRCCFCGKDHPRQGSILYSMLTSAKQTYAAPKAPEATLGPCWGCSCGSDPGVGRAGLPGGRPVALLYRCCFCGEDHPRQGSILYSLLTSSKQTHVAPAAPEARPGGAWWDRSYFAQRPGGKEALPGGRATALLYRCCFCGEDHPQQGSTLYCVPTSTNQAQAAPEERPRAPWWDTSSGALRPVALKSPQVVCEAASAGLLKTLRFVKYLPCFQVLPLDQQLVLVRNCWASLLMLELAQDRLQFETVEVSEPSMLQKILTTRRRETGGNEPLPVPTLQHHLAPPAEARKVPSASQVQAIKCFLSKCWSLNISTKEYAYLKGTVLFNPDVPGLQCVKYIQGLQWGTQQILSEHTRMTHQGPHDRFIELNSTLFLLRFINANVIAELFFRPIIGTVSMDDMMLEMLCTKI

As for `O=C(NCCN1CCC(n2c(=O)[nH]c3ccccc32)CC1)c1cc2ccccc2c2ccccc12`, the IC50 at Phospholipase D2 [1] was 0.42 µM (active); on Phospholipase D1 [2] it was 0.016 µM (active).

On to `O=C(c1ccc(Cl)cc1)N1CCN(c2nccs2)CC1`, for which the AC50 is 195 µM (active) in the assay on Candida albicans [3]; 3.77 µM (active) in the assay on Candida albicans [4]; 20 µM (active) with Candida albicans [5]; 0.555 µM (active) with Candida albicans [6]; 3.24 µM (active) in the assay on Candida albicans [7].

As for `Nc1ccc(C(=O)Nc2ccccc2N)cc1` [DINALINE], the figures for the EC50 (in [8]; in “cells [11]”; in “cells [16]”) were > 67.6 µM (inactive), > 350 µM (not active) and 18.7 µM (active), respectively. Besides, the IC50 in [9] is 19.8 µM (inactive); in [10], > 20 µM (inactive); in the assay with HEK293, 0.255 µM (active); in assay [12], 12.9 µM (inactive); in [13], > 20 µM (inactive); in assay [14], > 6.67 µM (inactive). Besides, the IC50 in assay [15], in assay [17], in [18] and in assay [19] was > 20 µM (inactive) in each case.

`COc1ccc(S(=O)(=O)N(C)C[C@@H]2Oc3c(NC(=O)Nc4cccc5ccccc45)cccc3C(=O)N([C@@H](C)CO)C[C@H]2C)c(OC)c1`: the AC50 in the assay with INS1 [20] is 45.5 µM (active); in the assay on INS1 [21], > 260 µM (inactive); in the assay with INS1 [22], 74.1 µM (active); in [23], 27.7 µM (active).

With `CC/N=C1/SC(=Cc2cc(C)n(Cc3ccccc3OC)c2C)C(=O)N1CC`, the values for the EC50 in assay [24], in assay [25] and in [26] were 13.7 µM (inactive), 0.18 µM (active) and 0.106 µM (active), respectively.

For the molecule `CCC(C)NC(=O)c1ccc(CNS(=O)(=O)c2ccc3c(c2)C(C)(C)C(=O)N3C)cc1` (stereo not given), the 50% effective concentration (EC50) is 15.9 µM (active) in [27], 21.8 µM (inactive) in [28], > 99 µM (inactive) in assay [29] and > 99 µM (inactive) in assay [30]. For the same molecule, the CC50 in the assay with MEF is > 99 µM (inactive).

Turning to `C[C@@H](CN1CCC2(CC1)C(=O)NCN2c1ccccc1)NC(=O)c1ccc(F)c(F)c1`, the figures for the IC50 at Phospholipase D2 [1], at Phospholipase D2 [31] and at Phospholipase D1 [32] were 0.21 µM (active), 2.22 µM (active) and 2.15 µM (active), respectively.
